“Also recorded” adds a separate entry of the source. Like-named read-outs stand apart in the source and are kept apart here.
Experiments:
[1] = in vivo; cited from earlier work
postsynaptic GABAARs = experiment: Whole-cell currents evoked by exogenous GABA (10 μM) in cultured hippocampal neurons; format: cell-based, mice
α5GABAARs [2] = target: T1, α5GABAARs (Mus musculus, UniProt P22723+Q8BHJ7); experiment: Tonic inhibitory current, whole cell voltage-clamp in cultured hippocampal neurons; format: cell-based, mice; set-up: endogenous in cells; host or cells: primary embryonic mouse hippocampal neurons, alone or co-cultured with cortical microglia; settings: for effect on the tonic current (in words): cultured hippocampal neurons; for amplitude of the tonic current: TNF-α 100 ng/ml, n=10, IL-6 10 ng/ml, n=5
T1 sequence (Q8BHJ7 32-463 limits assumed): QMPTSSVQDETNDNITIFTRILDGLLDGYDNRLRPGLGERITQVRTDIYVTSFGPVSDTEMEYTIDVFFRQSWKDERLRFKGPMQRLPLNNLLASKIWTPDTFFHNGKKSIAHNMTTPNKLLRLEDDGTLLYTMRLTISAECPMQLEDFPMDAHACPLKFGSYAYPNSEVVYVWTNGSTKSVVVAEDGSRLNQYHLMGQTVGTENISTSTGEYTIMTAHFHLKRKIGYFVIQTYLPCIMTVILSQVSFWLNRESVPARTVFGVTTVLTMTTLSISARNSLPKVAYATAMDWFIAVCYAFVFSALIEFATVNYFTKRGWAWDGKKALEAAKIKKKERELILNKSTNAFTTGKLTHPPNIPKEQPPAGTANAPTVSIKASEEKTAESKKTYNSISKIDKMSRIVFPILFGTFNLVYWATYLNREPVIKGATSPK
T1 sequence (P63080 26-473 partner): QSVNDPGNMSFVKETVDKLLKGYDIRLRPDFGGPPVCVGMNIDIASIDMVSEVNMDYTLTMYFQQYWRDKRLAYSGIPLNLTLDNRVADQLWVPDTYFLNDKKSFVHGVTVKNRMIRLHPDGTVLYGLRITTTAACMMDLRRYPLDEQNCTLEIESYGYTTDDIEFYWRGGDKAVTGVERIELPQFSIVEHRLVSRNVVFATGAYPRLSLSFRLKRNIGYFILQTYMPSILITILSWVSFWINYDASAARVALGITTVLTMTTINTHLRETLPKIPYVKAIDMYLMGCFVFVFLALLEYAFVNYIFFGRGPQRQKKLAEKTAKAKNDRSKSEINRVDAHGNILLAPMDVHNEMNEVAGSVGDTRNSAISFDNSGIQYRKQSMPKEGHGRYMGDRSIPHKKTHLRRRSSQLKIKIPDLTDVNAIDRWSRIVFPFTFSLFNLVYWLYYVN
T1 sequence (P22723 39-474): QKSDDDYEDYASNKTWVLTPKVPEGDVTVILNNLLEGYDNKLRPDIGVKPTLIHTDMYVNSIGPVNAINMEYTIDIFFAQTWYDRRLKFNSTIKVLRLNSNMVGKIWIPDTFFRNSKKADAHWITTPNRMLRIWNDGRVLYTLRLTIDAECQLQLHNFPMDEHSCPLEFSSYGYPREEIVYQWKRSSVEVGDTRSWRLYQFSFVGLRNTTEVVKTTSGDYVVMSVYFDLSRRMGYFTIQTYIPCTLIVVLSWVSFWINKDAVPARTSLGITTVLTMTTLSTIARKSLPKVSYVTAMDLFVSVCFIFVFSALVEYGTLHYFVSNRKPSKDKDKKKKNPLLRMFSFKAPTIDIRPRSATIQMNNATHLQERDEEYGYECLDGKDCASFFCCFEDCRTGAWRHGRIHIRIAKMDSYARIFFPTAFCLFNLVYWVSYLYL

α5GABAARs [3] = target: T2, α5GABAARs (Mus musculus, UniProt P22723+P63080+Q8BHJ7); settings: cited from earlier work
T2 construct: host or cells: neurons (mIPSCs and tonic current recorded); preparation not described in this paragraph
T2 sequence (Q8BHJ7 32-463 limits assumed): as the sequence (Q8BHJ7 32-463 limits assumed) above
T2 sequence (P63080 26-473): as the sequence (P63080 26-473 partner) above
T2 sequence (P22723 39-474): as the sequence (P22723 39-474) above

synaptic GABAARs = experiment: Miniature inhibitory postsynaptic currents (mIPSCs) in cultured hippocampal neurons; format: cell-based, mice
[4] = rats; cited from earlier work
α5GABAARs [5] = target: T1, α5GABAARs; settings: WT mice, etomidate or etomidate plus L-655,708 30 min prior to training; cited from earlier work
α5GABAA receptors [6] = target: α5GABAA receptors (Mus musculus, UniProt P22723+Q8BHJ7); settings: for effect of the anesthetic on recognition memory, wild-type mice (in words): 24 h after anesthesia
α5GABAA receptors (Mus musculus, UniProt P22723+Q8BHJ7), sequence (Q8BHJ7 32-463 limits assumed): as the sequence (Q8BHJ7 32-463 limits assumed) above
α5GABAA receptors (Mus musculus, UniProt P22723+Q8BHJ7), sequence (P63080 26-473 partner): as the sequence (P63080 26-473 partner) above
α5GABAA receptors (Mus musculus, UniProt P22723+Q8BHJ7), sequence (P22723 39-474): as the sequence (P22723 39-474) above

α5GABAA receptors [7] = target: T3, α5GABAA receptors (Homo sapiens, UniProt P18507+P31644); set-up: host or cells: human volunteers (brain in vivo); settings: human volunteers, given before ethanol; cited from earlier work
T3 sequence (P31644 32-462): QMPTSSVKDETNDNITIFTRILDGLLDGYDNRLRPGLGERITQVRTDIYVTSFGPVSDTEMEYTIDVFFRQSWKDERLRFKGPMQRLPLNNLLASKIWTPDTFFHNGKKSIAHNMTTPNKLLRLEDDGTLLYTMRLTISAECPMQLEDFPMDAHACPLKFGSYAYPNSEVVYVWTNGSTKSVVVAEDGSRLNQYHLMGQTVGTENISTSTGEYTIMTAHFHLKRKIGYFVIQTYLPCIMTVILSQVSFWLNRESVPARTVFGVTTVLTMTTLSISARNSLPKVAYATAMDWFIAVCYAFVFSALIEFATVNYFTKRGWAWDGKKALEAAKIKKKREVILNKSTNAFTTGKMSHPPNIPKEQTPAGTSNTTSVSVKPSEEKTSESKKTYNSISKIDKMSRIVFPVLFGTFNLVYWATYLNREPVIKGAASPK
T3 sequence (P28472 26-473 partner): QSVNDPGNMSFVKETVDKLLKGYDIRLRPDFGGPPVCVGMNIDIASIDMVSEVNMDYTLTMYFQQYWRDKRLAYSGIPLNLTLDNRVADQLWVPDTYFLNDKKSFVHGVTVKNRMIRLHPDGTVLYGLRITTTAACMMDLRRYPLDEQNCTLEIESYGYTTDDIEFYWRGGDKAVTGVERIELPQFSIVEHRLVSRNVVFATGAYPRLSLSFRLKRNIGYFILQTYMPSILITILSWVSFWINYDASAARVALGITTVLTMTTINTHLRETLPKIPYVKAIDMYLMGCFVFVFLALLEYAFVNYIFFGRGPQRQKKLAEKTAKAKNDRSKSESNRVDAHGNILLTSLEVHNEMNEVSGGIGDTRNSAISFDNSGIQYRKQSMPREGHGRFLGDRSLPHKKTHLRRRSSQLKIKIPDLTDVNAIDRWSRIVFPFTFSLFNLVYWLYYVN
T3 sequence (P18507 40-467 limits assumed): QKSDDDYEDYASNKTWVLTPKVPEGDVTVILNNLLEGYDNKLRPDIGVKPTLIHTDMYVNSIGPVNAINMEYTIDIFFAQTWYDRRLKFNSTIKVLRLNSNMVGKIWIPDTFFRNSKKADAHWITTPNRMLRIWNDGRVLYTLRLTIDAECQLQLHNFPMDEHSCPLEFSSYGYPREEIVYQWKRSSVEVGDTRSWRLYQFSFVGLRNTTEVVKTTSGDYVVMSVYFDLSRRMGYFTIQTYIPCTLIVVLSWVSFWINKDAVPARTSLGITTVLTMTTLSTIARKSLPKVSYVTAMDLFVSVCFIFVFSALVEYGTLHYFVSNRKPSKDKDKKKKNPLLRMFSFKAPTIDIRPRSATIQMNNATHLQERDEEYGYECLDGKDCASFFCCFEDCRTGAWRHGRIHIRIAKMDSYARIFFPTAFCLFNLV

α5GABAARs [8] = experiment: Tonic current in hippocampal neuron-microglia co-culture; format: cell-based, mice; settings: LPS 100 ng ml^−1 overnight; IL-1ra 250 ng ml^−1
[9] = pretreatment before tibial osteotomy; cited from earlier work
α5GABAARs [10] = target: T1, α5GABAARs; experiment: Long-term potentiation of field postsynaptic potentials in hippocampal slices; format: cell-based, mice; set-up: endogenous in cells; host or cells: primary embryonic mouse hippocampal neurons, alone or co-cultured with cortical microglia
Description: IL-1β could influence any of several molecular processes that regulate synaptic plasticity^50. The key question is whether α5GABAARs underlie the predominant effect of IL-1β on plasticity. Our working hypothesis is that IL-1β acts via α5GABAARs to inhibit LTP. […] After 3 hours, the mice were sacrificed and the hippocampi harvested. Extracellular field recordings were obtained with a recording electrode placed in the stratum radiatum of the CA1 subfield.
The long-term potentiation (LTP) of evoked field postsynaptic potentials (fPSPs) was studied using previously described methods^29. […] Baseline stimulation frequency was 0.05 Hz. LTP was induced in the slices with theta burst stimulation (TBS), which consisted of 10 stimulus trains at 5 Hz, with each train consisting of 4 pulses at 100 Hz. The fPSPs were monitored for 10 min before TBS and for 60 min after TBS.

**Q.** With `CNC(=O)c1cc2c(cn1)[nH]c1ccccc12` [FG 7142] as the compound, how does the “convulsant / anxiogenic properties (in words)” value [1] read?
**A.** have epileptogenic and anxiogenic properties

**Q.** For `O=c1cc(N2CCOCC2)oc2c(-c3ccccc3)cccc12` [LY294,002], which “effect on IL-1β inhibition of the GABA-evoked peak current (in words)” value (postsynaptic GABAARs) is on record?
**A.** completely prevented IL-1β-dependent inhibition of the GABA-evoked peak current; also recorded: alone had no effect on the GABA-evoked peak responses

**Q.** What about the “effect on the tonic current (in words)” value (α5GABAARs [2]) of the same compound?
**A.** had no effect on the IL-1β-induced increase in tonic current

**Q.** Which “increase in charge transfer for the tonic current relative to that for mIPSCs” value (α5GABAARs [3]) does the source give for `Cc1ncc2n1-c1ccc(Cl)cc1C(c1ccccc1F)=NC2` [Midazolam, midazolam] here?
**A.** 7-21 fold

**Q.** Which “effect on the tonic current (in words)” value (α5GABAARs [2]) does the source give for `CCc1nc(-c2ccc(OC)cc2)[nH]c1-c1ccncc1` [SB202,474] here?
**A.** had no effect on the tonic current

**Q.** Which results are given for `C[S+]([O-])c1ccc(-c2nc(-c3ccncc3)c(-c3ccc(F)cc3)[nH]2)cc1` (stereo not shown) [SB203,580]?
**A.** effect on mIPSCs (in words) (synaptic GABAARs): did not modify IL-1β inhibition of miniature IPSCs; effect on IL-1β inhibition of the GABA-evoked peak current (in words) (postsynaptic GABAARs): had no effect on inhibition of the GABA-evoked peak current by IL-1β; tonic current density (α5GABAARs [2]; IL-1β 20 ng ml^−1 20 min with or without SB203,580 20 μM 30 min): 1.0±0.1 pA pF^−1; effect on the tonic current (in words) (α5GABAARs [2]): completely blocked the IL-1β-induced increase in the tonic current

**Q.** For `FC(F)OC(F)C(F)(F)F` (stereo not shown) [desflurane], which “threshold concentration that impaired memory performance during fear conditioning” value [4] is on record?
**A.** 0.44%

**Q.** Which results are given for `CCOC(=O)c1cncn1[C@H](C)c1ccccc1` [etomidate]?
**A.** contextual fear memory, freezing score (in words) (α5GABAARs [5]): reduced the freezing score; effect on the tonic current (in words) (α5GABAARs [2]): selectively potentiate the tonic current; also recorded: increased the amplitude of the tonic current; also recorded: produced a supra-additive increase in the tonic current

**Q.** For `COc1ccc(-c2ccc(=N)n(CCCC(=O)O)n2)cc1` [gabazine], which “effect on the tonic current (in words)” value (α5GABAARs [2]) is on record?
**A.** selectively inhibits the synaptic but not tonic current

**Q.** For `FC(F)(F)C(Cl)Br` (stereo not shown) [halothane], which “threshold concentration that impaired memory performance during fear conditioning” value [4] is on record?
**A.** 0.3%

**Q.** With `CC(C)c1cccc(C(C)C)c1O` [propofol] as the compound, how does the “increase in charge transfer for the tonic current relative to that for mIPSCs” value (α5GABAARs [3]) read?
**A.** 6-33 fold

**Q.** For `FCOC(C(F)(F)F)C(F)(F)F` [sevoflurane], which “effect of the anesthetic on recognition memory, wild-type mice (in words)” value (α5GABAA receptors [6]) is on record?
**A.** did not learn the task

**Q.** And the “effect of the anesthetic on recognition memory, wild-type mice (in words)” value (α5GABAA receptors [6]; listed as Sevoflurane)?
**A.** caused memory deficits 24 h after anesthesia

**Q.** And the “exploratory behavior during the training phase” value (α5GABAA receptors [6]; 24 h after sevoflurane)?
**A.** 23.45 ± 3.88 s

**Q.** And the “time with familiar object” value (α5GABAA receptors [6]; 24 h after sevoflurane)?
**A.** 13.13±1.95

**Q.** What about the “time with novel object” value (α5GABAA receptors [6]; 24 h after sevoflurane) of the same compound?
**A.** 15.41±2.25

**Q.** What about the “discrimination ratio, short-term memory” value (α5GABAA receptors [6]; 24 h after sevoflurane 2.3% 1 h) of the same compound?
**A.** 0.53±0.03

**Q.** And the “threshold concentration that impaired memory performance during fear conditioning” value [4]?
**A.** 0.3%

**Q.** For `Cc1cc(-c2nnc3c4ccccc4c(OCc4cn(C)nn4)nn23)no1` [α5IA], which “ethanol-induced memory impairment (in words)” value (α5GABAA receptors [7]) is on record?
**A.** reversed memory impairment for word-list learning after the ingestion of ethanol; also recorded: attenuated ethanol-induced impairment of word recall

**Q.** Which “effect on the tonic current (in words)” value (α5GABAARs [8]) does the source give for “IL-1ra: naturally occurring IL-1 receptor antagonist that blocks the type 1 IL-1 receptor” here?
**A.** fully reversed the enhancement of the tonic current

**Q.** What about the “effect on mIPSCs (in words)” value (synaptic GABAARs) of the same compound?
**A.** this effect could be blocked by IL-1ra

**Q.** What about the “effect on IL-1β inhibition of the GABA-evoked peak current (in words)” value (postsynaptic GABAARs) of the same compound?
**A.** this effect could be blocked by IL-1ra

**Q.** And the “postsurgical memory deficits (in words)” value [9]?
**A.** no memory deficits were detected

**Q.** What about the “effect on the tonic current (in words)” value (α5GABAARs [2]) of the same compound?
**A.** completely blocked by IL-1ra; also recorded: alone had no effect on the tonic or synaptic currents; also recorded: completely blocked both the increase in tonic current and the reduction of synaptic current by IL-1β

**Q.** And the “effect on LTP (in words)” value (α5GABAARs [10])?
**A.** This inhibition of LTP was abolished by incubating the slices with IL-1ra

**Q.** And the “LTP, slope of fPSPs” value (α5GABAARs [10]; slices from LPS-treated WT mice incubated with IL-1ra 100 ng ml^−1 for 1 h, n=10)?
**A.** 126.2%±3.9%

**Q.** Which “amplitude of the tonic current” value (α5GABAARs [2]) does the source give for IL-6: pro-inflammatory cytokine here?
**A.** 96.3%±6.0%

**Q.** And the “effect on the tonic current (in words)” value (α5GABAARs [2])?
**A.** did not modify the tonic conductance in hippocampal neurons

**Q.** Which “amplitude of the tonic current” value (α5GABAARs [2]) does the source give for TNF-α here?
**A.** 104.1%±12.1%

**Q.** And the “effect on the tonic current (in words)” value (α5GABAARs [2])?
**A.** did not modify the tonic conductance in hippocampal neurons

Source: patent US9517265B2, “Methods for the prevention and/or treatment of memory impairment” (The Governing Council of the University of Toronto, priority 2010, dated 2016)
